According to PubChem BioAssay (NCI):
Several values for one entry are separate records, joined by “and”; a condition that tells them apart may be missing. Equal values may be shown once.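 All cell lines were grown in 96-well plates and treated with compound for 48 hours. GI50 marks 50% less growth. TGI: concentration producing complete growth inhibition.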

What was measured:
Assay in all cases: NCI tumour cell line growth inhibition, 48 h
DMS 114 small cell lung = test system: DMS 114 small cell lung
LXFL 529 NSCLC = test system: LXFL 529 NSCLC
DMS 273 small cell lung = test system: DMS 273 small cell lung
HOP-18 NSCLC = test system: HOP-18 NSCLC
M19-MEL melanoma = test system: M19-MEL melanoma
MDA-N = test system: MDA-N
SNB-78 CNS = test system: SNB-78 CNS
XF 498 CNS = test system: XF 498 CNS
RXF-631 renal = test system: RXF-631 renal
P388 leukemia = test system: P388 leukemia
SN12K1 renal = test system: SN12K1 renal
P388/ADR leukemia = test system: P388/ADR leukemia

## CC1(C)Cc2nnsc2C2=C1C(=O)CCS2
DMS 114 small cell lung
  TGI: > 100 µM
LXFL 529 NSCLC
  TGI: > 100 µM
DMS 273 small cell lung
  TGI: > 100 µM
HOP-18 NSCLC
  TGI: > 100 µM

## C[CH2][Ge]([CH2]C)([CH2]C)[O]C(=O)C([O][Ge]([CH2]C)([CH2]C)[CH2]C)c1ccccc1 (centres undefined)
DMS 114 small cell lung
  GI50: 5.84 µM
  TGI: 31.6 µM
LXFL 529 NSCLC
  GI50: 9.67 µM
  TGI: 44.9 µM
HOP-18 NSCLC
  GI50: 26.7 µM
  TGI: 59 µM
M19-MEL melanoma
  GI50: 16.9 µM
  TGI: 42.9 µM

## COC(=O)C1=CO[C@@H](OC2OC(CO)C(O)C(O)C2O)[C@@H]2[C@H](C)[C@@H](O)[C@@H](O)[C@]12O (some centres undefined)
MDA-N
  TGI: > 100 µM

## CN(C)CCC(/C=C/c1ccccc1)=N\Nc1ccc(Cl)cc1
DMS 114 small cell lung
  TGI: 5.9 µM
LXFL 529 NSCLC
  TGI: 9.26 µM
DMS 273 small cell lung
  TGI: 4.66 µM
SNB-78 CNS
  TGI: 21.4 µM
HOP-18 NSCLC
  TGI: 17 µM
M19-MEL melanoma
  TGI: 19.7 µM

## Cc1[nH]c(=O)nc(N/N=C/c2ccc(Cl)cc2)c1C(=O)Nc1ccc(Cl)cc1
DMS 114 small cell lung
  TGI: 56.1 µM
LXFL 529 NSCLC
  TGI: > 73.3 µM
DMS 273 small cell lung
  TGI: > 100 µM
MDA-N
  TGI: > 100 µM
SNB-78 CNS
  TGI: > 100 µM
HOP-18 NSCLC
  TGI: 7.3 µM
M19-MEL melanoma
  TGI: > 100 µM
XF 498 CNS
  TGI: 25.2 µM

## Cc1cc(Cl)ccc1N1C(=O)C(=O)C(c2nc3ccccc3o2)C(=O)C1=O
DMS 114 small cell lung
  TGI: > 100 µM
LXFL 529 NSCLC
  TGI: > 100 µM
DMS 273 small cell lung
  TGI: > 100 µM
SNB-78 CNS
  TGI: > 100 µM
HOP-18 NSCLC
  TGI: > 100 µM
M19-MEL melanoma
  TGI: > 100 µM
XF 498 CNS
  TGI: > 100 µM

## Cc1cc(Cl)cc2c1NC(=O)C2(O)CC(=O)c1ccc(F)cc1 (centres undefined)
DMS 273 small cell lung
  TGI: > 100 µM
SNB-78 CNS
  TGI: > 100 µM
HOP-18 NSCLC
  TGI: 90.7 µM
M19-MEL melanoma
  TGI: 17.9 µM
XF 498 CNS
  TGI: 66.4 µM

## CN(C)CCC(=O)N1CCc2c([nH]c3ccccc23)C1c1cccnc1 (centres undefined)
DMS 114 small cell lung
  TGI: > 100 µM
LXFL 529 NSCLC
  TGI: > 100 µM
DMS 273 small cell lung
  TGI: > 100 µM
SNB-78 CNS
  TGI: > 100 µM
RXF-631 renal
  TGI: > 100 µM
HOP-18 NSCLC
  TGI: > 100 µM
M19-MEL melanoma
  TGI: > 100 µM
XF 498 CNS
  TGI: > 100 µM

## COc1cccc2c1C(=O)c1c(O)c3c(c(O)c1C2=O)C[C@@](O)(C(C)=O)C[C@@H]3OC1CC(O)C(O)C(C)O1 (some centres undefined)
P388 leukemia
  GI50: 0.013 µM
  TGI: 0.372 µM
SN12K1 renal
  GI50: 0.333 µM
  TGI: 4.96 µM
LXFL 529 NSCLC
  GI50: 1.49 µM
  TGI: 15.3 µM
DMS 273 small cell lung
  TGI: 7.84 µM and 3.46 µM
MDA-N
  TGI: 21.4 µM
SNB-78 CNS
  TGI: 59.1 µM
P388/ADR leukemia
  TGI: 1.64 µM
HOP-18 NSCLC
  TGI: 7.13 µM and 7.74 µM
M19-MEL melanoma
  TGI: 9.24 µM and 6.19 µM

## O=C1C(CO)=C[C@@H](O)[C@H]2O[C@@H]12
MDA-N
  TGI: > 100 µM

## COc1ccc(C(=O)C/C(=N/NC(N)=S)C(=O)Nc2ccccc2)cc1
DMS 114 small cell lung
  TGI: > 100 µM
LXFL 529 NSCLC
  TGI: > 100 µM
DMS 273 small cell lung
  TGI: > 100 µM
SNB-78 CNS
  TGI: > 100 µM
HOP-18 NSCLC
  TGI: > 100 µM
M19-MEL melanoma
  TGI: > 100 µM
XF 498 CNS
  TGI: > 100 µM

## O=C(O)c1nnsc1-c1csnn1
MDA-N
  TGI: > 100 µM

## NC1=NCC(c2ccccn2)C1c1ccc(F)cc1 (centres undefined)
DMS 114 small cell lung
  TGI: > 100 µM
LXFL 529 NSCLC
  TGI: > 100 µM
SNB-78 CNS
  TGI: > 100 µM
RXF-631 renal
  TGI: > 100 µM
HOP-18 NSCLC
  TGI: > 100 µM
M19-MEL melanoma
  TGI: > 100 µM
XF 498 CNS
  TGI: > 100 µM

## CCP(C)(C)=O
DMS 114 small cell lung
  TGI: > 100 µM
LXFL 529 NSCLC
  TGI: > 100 µM
DMS 273 small cell lung
  TGI: > 100 µM
SNB-78 CNS
  TGI: > 100 µM
M19-MEL melanoma
  TGI: > 100 µM
XF 498 CNS
  TGI: > 100 µM

## CCCCCCCC(=O)NS(=O)(=O)c1ccccc1
MDA-N
  TGI: > 100 µM

## CCOC(=O)C(O)Cc1cnc2ccccc2n1 (centres undefined)
MDA-N
  TGI: > 100 µM

## Cc1cccc(C)c1NC(=O)CCCC(=O)C(C#N)c1ccc(Cl)cc1 (centres undefined)
DMS 114 small cell lung
  TGI: > 100 µM
LXFL 529 NSCLC
  TGI: > 100 µM
DMS 273 small cell lung
  TGI: > 100 µM
SNB-78 CNS
  TGI: > 100 µM
HOP-18 NSCLC
  TGI: > 100 µM
M19-MEL melanoma
  TGI: > 100 µM
